This is an account of results in ChEMBL document CHEMBL1136052, “Identification of novel cyclooxygenase-2 selective inhibitors using pharmacophore models” (J Med Chem, 2002).

The target of assay [1] is Prostaglandin G/H synthase 1 (Homo sapiens) (UniProt P23219). Particulars: 100 uM.
The target is the same in assay [2]. Kind of assay: Percent inhibition of arachidonic acid induced TXB2 generation in isolated human platelets (Prostaglandin G/H synthase 1 cell assay) at 10 uM. It counts as functional.
Assay [3] concerns the target T1, Prostaglandin G/H synthase 2 (Homo sapiens) (UniProt P35354).
T1 sequence (whole entry): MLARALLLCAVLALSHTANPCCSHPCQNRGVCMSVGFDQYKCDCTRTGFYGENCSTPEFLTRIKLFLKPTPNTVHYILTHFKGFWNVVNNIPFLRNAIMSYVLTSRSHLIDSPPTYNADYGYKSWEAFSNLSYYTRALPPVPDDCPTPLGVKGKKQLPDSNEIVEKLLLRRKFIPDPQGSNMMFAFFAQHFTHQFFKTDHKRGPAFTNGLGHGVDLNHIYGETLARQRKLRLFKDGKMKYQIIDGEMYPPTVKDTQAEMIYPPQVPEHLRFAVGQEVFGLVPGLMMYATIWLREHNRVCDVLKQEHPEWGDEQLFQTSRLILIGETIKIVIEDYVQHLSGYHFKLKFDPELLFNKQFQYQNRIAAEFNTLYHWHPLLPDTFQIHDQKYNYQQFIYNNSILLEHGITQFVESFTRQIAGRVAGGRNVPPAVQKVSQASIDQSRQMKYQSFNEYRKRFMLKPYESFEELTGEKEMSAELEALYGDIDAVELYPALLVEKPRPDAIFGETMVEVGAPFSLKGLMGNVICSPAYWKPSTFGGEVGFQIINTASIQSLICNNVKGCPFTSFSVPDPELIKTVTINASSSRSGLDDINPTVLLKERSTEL
The assay can be described thus: % Inhibition of Prostaglandin G/H synthase 2 activity was evaluated at 10 uM concentration, in human whole blood as LPS-induced PGE-2 generation. It counts as functional, tissue-based.

Assay [4] concerns the target T2, Prostaglandin G/H synthase 2 (Homo sapiens, UniProt P35354).
T2 sequence (P35354 whole entry): T1 sequence (whole entry)
Kind of assay: Inhibition of PGE-2 generation in LPS-stimulated human monocytes (Prostaglandin G/H synthase 2 assay).

The target of assay [5] is Prostaglandin G/H synthase 1 (Homo sapiens) (UniProt P23219). Kind of assay: Percent inhibition of arachidonic acid induced TXB2 generation in isolated human platelets (Prostaglandin G/H synthase 1 cell assay) at 10 uM. The class given is functional.

Sequence of Prostaglandin G/H synthase 1 (Homo sapiens) (P23219 whole entry): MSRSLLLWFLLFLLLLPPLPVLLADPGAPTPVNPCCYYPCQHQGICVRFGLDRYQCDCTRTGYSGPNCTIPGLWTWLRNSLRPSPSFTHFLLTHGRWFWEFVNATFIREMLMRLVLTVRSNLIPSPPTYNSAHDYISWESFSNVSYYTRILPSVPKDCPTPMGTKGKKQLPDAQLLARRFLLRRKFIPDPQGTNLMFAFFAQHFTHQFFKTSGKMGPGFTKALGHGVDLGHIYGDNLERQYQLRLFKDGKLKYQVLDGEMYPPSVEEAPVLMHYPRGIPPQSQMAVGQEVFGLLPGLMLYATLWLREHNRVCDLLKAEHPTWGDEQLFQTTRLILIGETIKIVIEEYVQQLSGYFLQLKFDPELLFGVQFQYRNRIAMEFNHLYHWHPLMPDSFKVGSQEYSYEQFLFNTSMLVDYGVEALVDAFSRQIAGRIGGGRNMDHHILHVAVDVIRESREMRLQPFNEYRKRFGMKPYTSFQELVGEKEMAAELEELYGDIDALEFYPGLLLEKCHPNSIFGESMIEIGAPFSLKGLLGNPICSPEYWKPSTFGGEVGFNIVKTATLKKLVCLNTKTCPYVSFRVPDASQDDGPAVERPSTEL

On to `COC(=O)c1cc2cc(S(C)(=O)=O)ccc2n1Cc1ccc(OC)cc1`, for which the inhibition in assay [1] was found to be 54%; in assay [2], 15%.

`COC(=O)c1cc2cc(S(C)(=O)=O)ccc2n1C(=O)c1ccc(Cl)cc1`: the inhibition in assay [3] is less than 25%; in assay [5], 16%. Also, half-maximal inhibition in assay [4] (IC50) was put at 730 nM. `COC(=O)c1cc2cc(S(C)(=O)=O)ccc2n1Cc1ccc([N+](=O)[O-])cc1` displayed an inhibition in assay [2] of 0%. As for `CS(=O)(=O)c1ccc2c(c1)cc(C(=O)O)n2Cc1ccc(Cl)cc1`, in assay [2], the inhibition was 37%. As for `COC(=O)c1cc2cc(S(C)(=O)=O)ccc2n1C(=O)c1ccc(Br)cc1`, the inhibition in assay [5] came out at 15%. The compound `COC(=O)c1cc2cc(S(C)(=O)=O)ccc2n1Cc1ccc(Br)cc1` returned an inhibition in assay [2] of 25%. Take `COC(=O)c1cc2cc(S(C)(=O)=O)ccc2n1Cc1ccc(Cl)cc1`: the inhibition in assay [1] came out at 25%; in assay [2], 19%.

As a reminder, the inhibition is the change of the read-out against control, counted positive when it falls. A lower inhibition goes with a response near the control. The IC50 is the concentration that gives 50% inhibition. Read a low IC50 as greater potency in that assay.
